Experimental findings from publication PMC4367188 (ACS Chemical Neuroscience, 2015) are described below.

The target of one series is T1, hCHT (Homo sapiens, UniProt Q9GZV3).
T1 sequence (Q9GZV3 1-580): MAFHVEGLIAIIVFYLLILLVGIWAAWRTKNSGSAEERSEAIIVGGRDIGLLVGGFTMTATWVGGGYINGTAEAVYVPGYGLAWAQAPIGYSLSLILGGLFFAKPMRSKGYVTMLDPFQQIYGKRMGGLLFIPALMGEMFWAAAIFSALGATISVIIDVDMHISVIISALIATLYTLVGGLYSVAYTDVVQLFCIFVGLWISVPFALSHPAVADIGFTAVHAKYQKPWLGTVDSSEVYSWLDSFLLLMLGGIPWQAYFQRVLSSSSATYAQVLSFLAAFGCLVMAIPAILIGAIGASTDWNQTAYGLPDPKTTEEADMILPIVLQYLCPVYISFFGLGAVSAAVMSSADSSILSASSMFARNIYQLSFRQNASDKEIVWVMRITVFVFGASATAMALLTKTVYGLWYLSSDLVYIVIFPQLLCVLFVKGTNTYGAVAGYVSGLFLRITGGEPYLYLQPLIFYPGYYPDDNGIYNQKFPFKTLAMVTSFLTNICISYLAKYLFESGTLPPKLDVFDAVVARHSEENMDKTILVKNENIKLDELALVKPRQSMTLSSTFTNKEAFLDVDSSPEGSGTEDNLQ
Put plainly: [3H]HC-3 binding to membranes from HEK hCHT cells.

The target in another series is T2, WT hCHT (Homo sapiens, UniProt Q9GZV3).
T2 sequence (Q9GZV3 1-580): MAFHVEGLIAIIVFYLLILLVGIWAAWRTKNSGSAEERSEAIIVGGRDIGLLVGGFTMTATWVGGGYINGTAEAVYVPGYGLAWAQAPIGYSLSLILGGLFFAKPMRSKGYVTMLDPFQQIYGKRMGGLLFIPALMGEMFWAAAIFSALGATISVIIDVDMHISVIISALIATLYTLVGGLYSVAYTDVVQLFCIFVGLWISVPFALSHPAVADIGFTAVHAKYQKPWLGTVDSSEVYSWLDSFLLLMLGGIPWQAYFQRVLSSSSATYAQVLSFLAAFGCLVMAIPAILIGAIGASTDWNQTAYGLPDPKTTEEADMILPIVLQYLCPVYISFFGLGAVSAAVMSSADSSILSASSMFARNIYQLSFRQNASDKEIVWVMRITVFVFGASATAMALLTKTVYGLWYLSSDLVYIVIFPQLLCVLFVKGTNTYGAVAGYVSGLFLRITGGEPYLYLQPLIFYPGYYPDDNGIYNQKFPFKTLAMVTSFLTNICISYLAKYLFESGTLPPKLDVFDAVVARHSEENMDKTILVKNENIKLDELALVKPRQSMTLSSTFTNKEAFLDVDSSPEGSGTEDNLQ
As to the kind of experiment: cell-surface biotinylation, CHT surface expression in WT hCHT HEK 293 cells. The series is classed as cell-based.

Substrate in series [1]: C[N+](C)(C)CCO
Put plainly: cells, lysate or membranes. Particulars: other: hCHT LV-AA transfected cells; no inhibitor; 37.0 °C.

As usually defined, the Kd is the constant that tells how readily two partners part at equilibrium. A low value points to tighter binding. In turn, `C[N+]1(C)CCOC(O)(c2ccc(-c3ccc(C4(O)C[N+](C)(C)CCO4)cc3)cc2)C1` (stereo not shown) [HC-3, hemicholinium-3, reference compound] returned a Kd at hCHT of 8.5 ± 1.1 nM. Further, the “increase in steady-state hCHT surface expression” value on WT hCHT (5 μM, 15 min incubation) is 76 ± 16 % of control.
With `C[N+](C)(C)CCO` [choline], at WT hCHT (choline (10 μM), 15 min), the “effect of choline on CHT surface expression” value is “no evidence for the previously reported choline-dependent reductions”.

B1: hCHT LV-AA (Homo sapiens; L531A/V532A) (protein)
chain: MAFHVEGLIAIIVFYLLILLVGIWAAWRTKNSGSAEERSEAIIVGGRDIGLLVGGFTMTATWVGGGYINGTAEAVYVPGYGLAWAQAPIGYSLSLILGGLFFAKPMRSKGYVTMLDPFQQIYGKRMGGLLFIPALMGEMFWAAAIFSALGATISVIIDVDMHISVIISALIATLYTLVGGLYSVAYTDVVQLFCIFVGLWISVPFALSHPAVADIGFTAVHAKYQKPWLGTVDSSEVYSWLDSFLLLMLGGIPWQAYFQRVLSSSSATYAQVLSFLAAFGCLVMAIPAILIGAIGASTDWNQTAYGLPDPKTTEEADMILPIVLQYLCPVYISFFGLGAVSAAVMSSADSSILSASSMFARNIYQLSFRQNASDKEIVWVMRITVFVFGASATAMALLTKTVYGLWYLSSDLVYIVIFPQLLCVLFVKGTNTYGAVAGYVSGLFLRITGGEPYLYLQPLIFYPGYYPDDNGIYNQKFPFKTLAMVTSFLTNICISYLAKYLFESGTLPPKLDVFDAVVARHSEENMDKTIAAKNENIKLDELALVKPRQSMTLSSTFTNKEAFLDVDSSPEGSGTEDNLQ
For orientation: Km means the substrate concentration at which the rate is half of its maximum. As for B1, in series [1], the Km came out at 2.5 ± 0.4 µM.
